# Measured values published in patent US11725011B2, “Bicyclic urea kinase inhibitors and uses thereof” (The Broad Institute, Inc., priority 2016, dated 2023).
# What was measured:
# [1] = qAC50 biological assay (Table 4)
# [2] = molecular target: RET (M918T) (Homo sapiens (Human), UniProt P07949, M918T); assay: KINOMEscan; format: binding; conditions: 1 uM
# [3] = molecular target: KIT (V559D) (Homo sapiens (Human), UniProt P10721, V559D); assay: KINOMEscan; format: binding; conditions: 1 uM
# [4] = molecular target: PIK3CA (Homo sapiens (Human), UniProt P42336); assay: KINOMEscan; format: binding; conditions: 1 uM
# Sequence of PIK3CA (P42336 whole entry): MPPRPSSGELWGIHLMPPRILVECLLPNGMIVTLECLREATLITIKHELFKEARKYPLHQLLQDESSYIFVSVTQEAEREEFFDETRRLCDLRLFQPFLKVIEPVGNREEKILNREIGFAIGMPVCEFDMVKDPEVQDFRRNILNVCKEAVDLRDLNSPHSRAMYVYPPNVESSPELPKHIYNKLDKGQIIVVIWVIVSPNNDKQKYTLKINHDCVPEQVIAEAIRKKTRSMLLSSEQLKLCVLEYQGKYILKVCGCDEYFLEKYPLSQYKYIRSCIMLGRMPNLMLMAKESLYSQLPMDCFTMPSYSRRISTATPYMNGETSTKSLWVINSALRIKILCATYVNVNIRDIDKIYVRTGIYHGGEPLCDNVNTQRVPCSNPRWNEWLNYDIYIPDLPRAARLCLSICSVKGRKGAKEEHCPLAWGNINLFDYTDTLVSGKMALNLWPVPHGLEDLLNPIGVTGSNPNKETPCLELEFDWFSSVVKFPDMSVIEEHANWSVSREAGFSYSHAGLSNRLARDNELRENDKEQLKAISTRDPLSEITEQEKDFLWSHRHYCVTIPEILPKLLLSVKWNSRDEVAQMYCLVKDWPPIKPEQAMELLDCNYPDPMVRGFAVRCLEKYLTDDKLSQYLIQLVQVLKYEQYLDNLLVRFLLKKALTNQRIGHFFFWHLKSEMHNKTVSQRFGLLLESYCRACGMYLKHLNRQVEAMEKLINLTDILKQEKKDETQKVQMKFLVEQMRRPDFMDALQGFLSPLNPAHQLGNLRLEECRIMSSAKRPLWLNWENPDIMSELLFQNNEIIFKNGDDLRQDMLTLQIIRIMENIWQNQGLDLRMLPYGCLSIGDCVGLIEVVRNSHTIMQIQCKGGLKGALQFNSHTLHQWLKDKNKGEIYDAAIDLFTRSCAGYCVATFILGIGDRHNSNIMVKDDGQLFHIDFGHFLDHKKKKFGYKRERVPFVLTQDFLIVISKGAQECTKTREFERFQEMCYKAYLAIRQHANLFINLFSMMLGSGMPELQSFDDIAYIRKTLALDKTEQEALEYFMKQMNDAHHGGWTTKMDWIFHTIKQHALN
# [5] = molecular target: RSK4 (Kin.Dom.1-N-terminal) (Homo sapiens (Human), UniProt Q9UK32); assay: KINOMEscan; format: binding; conditions: 1 uM
# [6] = molecular target: KIT (D816H) (Homo sapiens (Human), UniProt P10721, D816H); assay: KINOMEscan; format: binding; conditions: 1 uM
# [7] = molecular target: EPHA4 (Homo sapiens (Human), UniProt P54764); assay: KINOMEscan; format: binding; conditions: 1 uM
# [8] = molecular target: JAK3 (JH1domain-catalytic) (Homo sapiens (Human), UniProt P52333); assay: KINOMEscan; format: binding; conditions: 1 uM
# [9] = molecular target: CHEK2 (Homo sapiens (Human), UniProt O96017); assay: KINOMEscan; format: binding; conditions: 1 uM
# [10] = molecular target: CDK8 (Homo sapiens (Human), UniProt P49336); assay: KINOMEscan; format: binding; conditions: 1 uM
# [11] = molecular target: ERK1 (Homo sapiens (Human), UniProt P27361); assay: KINOMEscan; format: binding; conditions: 1 uM
# Sequence of ERK1 (P27361 whole entry): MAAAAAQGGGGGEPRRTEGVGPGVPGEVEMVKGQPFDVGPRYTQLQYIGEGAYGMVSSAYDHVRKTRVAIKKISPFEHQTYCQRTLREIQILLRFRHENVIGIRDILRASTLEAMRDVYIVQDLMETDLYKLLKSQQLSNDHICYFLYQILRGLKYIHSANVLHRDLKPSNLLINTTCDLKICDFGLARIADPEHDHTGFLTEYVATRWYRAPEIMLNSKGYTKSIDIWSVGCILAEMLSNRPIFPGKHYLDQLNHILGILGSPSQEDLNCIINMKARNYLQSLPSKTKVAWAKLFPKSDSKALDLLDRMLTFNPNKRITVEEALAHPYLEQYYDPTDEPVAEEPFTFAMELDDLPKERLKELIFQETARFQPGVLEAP
# [12] = molecular target: SgK110 (Homo sapiens (Human), UniProt P0C264); assay: KINOMEscan; format: binding; conditions: 1 uM
# [13] = molecular target: BRAF (V600E) (Homo sapiens (Human), UniProt P15056, V600E); assay: KINOMEscan; format: binding; conditions: 1 uM
# Sequence of BRAF (V600E) (P15056 whole entry V600E): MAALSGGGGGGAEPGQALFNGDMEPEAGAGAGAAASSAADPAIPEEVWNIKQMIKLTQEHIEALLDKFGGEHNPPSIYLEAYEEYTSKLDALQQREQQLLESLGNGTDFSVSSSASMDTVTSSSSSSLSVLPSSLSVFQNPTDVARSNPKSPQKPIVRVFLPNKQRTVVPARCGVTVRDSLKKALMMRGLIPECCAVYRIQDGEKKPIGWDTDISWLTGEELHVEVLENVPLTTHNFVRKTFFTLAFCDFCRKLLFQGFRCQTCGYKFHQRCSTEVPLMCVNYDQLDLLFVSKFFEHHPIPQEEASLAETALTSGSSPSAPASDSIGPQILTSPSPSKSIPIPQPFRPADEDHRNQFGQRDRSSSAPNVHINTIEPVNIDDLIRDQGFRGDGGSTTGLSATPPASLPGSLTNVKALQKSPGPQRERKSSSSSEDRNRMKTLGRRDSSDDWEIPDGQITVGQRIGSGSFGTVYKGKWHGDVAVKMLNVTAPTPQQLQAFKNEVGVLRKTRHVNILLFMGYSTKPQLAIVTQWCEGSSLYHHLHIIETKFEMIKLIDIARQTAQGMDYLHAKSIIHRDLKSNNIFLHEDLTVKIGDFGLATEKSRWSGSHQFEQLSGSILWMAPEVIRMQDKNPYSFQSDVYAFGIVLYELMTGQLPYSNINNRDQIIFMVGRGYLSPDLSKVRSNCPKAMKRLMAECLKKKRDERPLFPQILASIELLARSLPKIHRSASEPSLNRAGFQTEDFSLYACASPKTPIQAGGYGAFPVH
# [14] = molecular target: BLK (Homo sapiens (Human), UniProt P51451); assay: KINOMEscan; format: binding; conditions: 1 uM
# [15] = molecular target: MAPKAPK5 (Homo sapiens (Human), UniProt Q8IW41); assay: KINOMEscan; format: binding; conditions: 1 uM
# Sequence of MAPKAPK5 (Q8IW41 whole entry, looked up): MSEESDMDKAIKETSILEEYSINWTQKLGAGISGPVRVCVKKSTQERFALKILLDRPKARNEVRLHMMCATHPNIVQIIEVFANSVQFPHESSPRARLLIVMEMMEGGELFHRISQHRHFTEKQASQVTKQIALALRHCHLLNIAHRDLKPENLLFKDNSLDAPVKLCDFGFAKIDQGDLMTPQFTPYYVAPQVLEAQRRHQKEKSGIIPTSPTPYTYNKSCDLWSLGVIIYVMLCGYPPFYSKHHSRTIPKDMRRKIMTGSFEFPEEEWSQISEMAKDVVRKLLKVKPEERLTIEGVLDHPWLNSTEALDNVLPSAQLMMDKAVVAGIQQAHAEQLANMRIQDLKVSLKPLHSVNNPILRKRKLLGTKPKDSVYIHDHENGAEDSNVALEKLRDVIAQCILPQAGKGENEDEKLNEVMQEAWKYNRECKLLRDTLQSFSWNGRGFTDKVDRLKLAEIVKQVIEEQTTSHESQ
# [16] = molecular target: TLK1 (Homo sapiens (Human), UniProt Q9UKI8); assay: KINOMEscan; format: binding; conditions: 1 uM
# [17] = molecular target: CSNK2A1 (Homo sapiens (Human), UniProt P68400); assay: KINOMEscan; format: binding; conditions: 1 uM
# Sequence of CSNK2A1 (P68400 whole entry): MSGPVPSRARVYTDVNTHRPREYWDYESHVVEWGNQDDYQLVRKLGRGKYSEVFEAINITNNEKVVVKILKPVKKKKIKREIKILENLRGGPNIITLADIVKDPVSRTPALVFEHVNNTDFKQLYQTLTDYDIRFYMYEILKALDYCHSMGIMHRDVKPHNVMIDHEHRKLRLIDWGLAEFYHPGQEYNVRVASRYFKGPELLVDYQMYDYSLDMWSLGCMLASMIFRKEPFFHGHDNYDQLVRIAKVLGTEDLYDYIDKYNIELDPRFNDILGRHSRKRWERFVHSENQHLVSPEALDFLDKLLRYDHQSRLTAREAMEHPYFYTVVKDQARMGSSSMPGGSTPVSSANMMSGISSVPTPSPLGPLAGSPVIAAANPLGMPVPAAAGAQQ
# [18] = molecular target: PDGFRA (Homo sapiens (Human), UniProt P16234); assay: KINOMEscan; format: binding; conditions: 1 uM
# [19] = molecular target: RPS6KA5 (Kin.Dom.2-C-terminal) (Homo sapiens (Human), UniProt O75582); assay: KINOMEscan; format: binding; conditions: 1 uM
# [20] = molecular target: HIPK1 (Homo sapiens (Human), UniProt Q86Z02); assay: KINOMEscan; format: binding; conditions: 1 uM
# [21] = molecular target: EPHB6 (Homo sapiens (Human), UniProt O15197); assay: KINOMEscan; format: binding; conditions: 1 uM
# Sequence of EPHB6 (O15197 32-1021): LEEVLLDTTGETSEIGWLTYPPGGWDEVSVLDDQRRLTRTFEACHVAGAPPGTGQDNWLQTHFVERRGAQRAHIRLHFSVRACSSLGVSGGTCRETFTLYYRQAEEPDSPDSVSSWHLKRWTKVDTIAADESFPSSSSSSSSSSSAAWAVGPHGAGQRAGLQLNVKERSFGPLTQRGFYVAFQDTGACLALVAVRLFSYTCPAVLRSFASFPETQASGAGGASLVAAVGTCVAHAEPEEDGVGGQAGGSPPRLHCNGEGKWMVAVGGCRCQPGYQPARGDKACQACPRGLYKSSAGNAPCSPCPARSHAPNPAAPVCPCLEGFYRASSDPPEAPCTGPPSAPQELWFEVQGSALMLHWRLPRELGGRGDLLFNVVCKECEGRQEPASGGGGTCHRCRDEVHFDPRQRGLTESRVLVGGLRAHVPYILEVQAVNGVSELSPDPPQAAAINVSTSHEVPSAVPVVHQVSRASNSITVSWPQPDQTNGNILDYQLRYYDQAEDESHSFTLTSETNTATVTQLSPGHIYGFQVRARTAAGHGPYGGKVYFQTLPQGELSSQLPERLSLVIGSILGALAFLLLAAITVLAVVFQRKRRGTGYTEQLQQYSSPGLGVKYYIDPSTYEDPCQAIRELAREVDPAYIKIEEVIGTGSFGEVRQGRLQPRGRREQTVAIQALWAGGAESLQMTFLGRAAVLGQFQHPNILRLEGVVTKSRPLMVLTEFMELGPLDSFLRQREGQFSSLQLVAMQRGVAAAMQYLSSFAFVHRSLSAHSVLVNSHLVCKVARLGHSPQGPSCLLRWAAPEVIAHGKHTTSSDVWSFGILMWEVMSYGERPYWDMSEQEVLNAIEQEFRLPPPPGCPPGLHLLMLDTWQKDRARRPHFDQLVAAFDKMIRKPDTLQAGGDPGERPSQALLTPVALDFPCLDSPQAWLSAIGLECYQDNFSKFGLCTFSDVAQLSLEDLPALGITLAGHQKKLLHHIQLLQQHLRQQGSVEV
# [22] = molecular target: TNNI3K (Homo sapiens (Human), UniProt Q59H18); assay: KINOMEscan; format: binding; conditions: 1 uM
# [23] = molecular target: TYK2 (JH1domain-catalytic) (Homo sapiens (Human), UniProt P29597); assay: KINOMEscan; format: binding; conditions: 1 uM
# [24] = molecular target: TEC (Homo sapiens (Human), UniProt P42680); assay: KINOMEscan; format: binding; conditions: 1 uM
# [25] = molecular target: YSK4 (Homo sapiens (Human), UniProt Q56UN5); assay: KINOMEscan; format: binding; conditions: 1 uM
# [26] = molecular target: PIK3CA (I800L) (Homo sapiens (Human), UniProt P42336, I800L); assay: KINOMEscan; format: binding; conditions: 1 uM
# Sequence of PIK3CA (I800L) (P42336 whole entry I800L): as the sequence (P42336 whole entry) above, with I800L counted along it
# [27] = molecular target: PIK4CB (Homo sapiens (Human), UniProt Q9UBF8); assay: KINOMEscan; format: binding; conditions: 1 uM
# Sequence of PIK4CB (Q9UBF8 whole entry): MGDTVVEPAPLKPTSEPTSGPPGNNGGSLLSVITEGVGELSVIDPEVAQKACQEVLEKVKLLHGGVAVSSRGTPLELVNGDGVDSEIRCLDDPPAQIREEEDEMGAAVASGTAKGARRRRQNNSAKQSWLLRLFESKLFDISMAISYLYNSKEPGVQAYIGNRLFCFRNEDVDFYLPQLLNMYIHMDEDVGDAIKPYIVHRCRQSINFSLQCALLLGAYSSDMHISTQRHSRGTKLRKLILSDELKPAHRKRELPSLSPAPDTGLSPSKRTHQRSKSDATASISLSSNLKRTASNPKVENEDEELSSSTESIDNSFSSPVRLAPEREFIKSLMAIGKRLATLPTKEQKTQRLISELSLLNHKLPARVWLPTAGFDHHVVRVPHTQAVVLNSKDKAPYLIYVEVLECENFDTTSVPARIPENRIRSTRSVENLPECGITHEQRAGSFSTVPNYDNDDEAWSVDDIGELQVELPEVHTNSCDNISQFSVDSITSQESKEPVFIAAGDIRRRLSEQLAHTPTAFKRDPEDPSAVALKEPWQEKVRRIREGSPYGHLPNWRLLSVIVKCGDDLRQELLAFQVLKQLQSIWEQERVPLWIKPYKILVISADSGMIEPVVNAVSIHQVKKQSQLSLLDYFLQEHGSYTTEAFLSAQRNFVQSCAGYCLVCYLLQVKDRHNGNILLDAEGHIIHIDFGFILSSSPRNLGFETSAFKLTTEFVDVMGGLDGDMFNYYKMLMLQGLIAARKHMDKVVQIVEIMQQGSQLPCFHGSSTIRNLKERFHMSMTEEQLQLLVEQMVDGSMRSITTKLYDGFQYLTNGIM
# [28] = molecular target: FLT3 (R834Q) (Homo sapiens (Human), UniProt P36888, R834Q); assay: KINOMEscan; format: binding; conditions: 1 uM
# [29] = molecular target: MEK3 (Homo sapiens (Human), UniProt P46734); assay: KINOMEscan; format: binding; conditions: 1 uM
# [30] = molecular target: NIM1 (Homo sapiens (Human), UniProt Q8IY84); assay: KINOMEscan; format: binding; conditions: 1 uM
# [31] = molecular target: PRKCE (Homo sapiens (Human), UniProt Q02156); assay: KINOMEscan; format: binding; conditions: 1 uM
# [32] = molecular target: JNK1 (Homo sapiens (Human), UniProt P45983); assay: KINOMEscan; format: binding; conditions: 1 uM
# [33] = molecular target: CDK4-cyclinD3 (Homo sapiens (Human), UniProt P11802); assay: KINOMEscan; format: binding; conditions: 1 uM
# [34] = molecular target: PIK3CG (Homo sapiens (Human), UniProt P48736); assay: KINOMEscan; format: binding; conditions: 1 uM
# [35] = molecular target: FGR (Homo sapiens (Human), UniProt P09769); assay: KINOMEscan; format: binding; conditions: 1 uM
# [36] = molecular target: EPHA8 (Homo sapiens (Human), UniProt P29322); assay: KINOMEscan; format: binding; conditions: 1 uM
# [37] = molecular target: FLT3 (D835Y) (Homo sapiens (Human), UniProt P36888, D835Y); assay: KINOMEscan; format: binding; conditions: 1 uM
# [38] = molecular target: BRAF (Homo sapiens (Human), UniProt P15056); assay: KINOMEscan; format: binding; conditions: 1 uM
# Sequence of BRAF (P15056 whole entry): as the sequence (P15056 whole entry V600E) above, with E600V counted along it
# [39] = molecular target: LIMK1 (Homo sapiens (Human), UniProt P53667); assay: KINOMEscan; format: binding; conditions: 1 uM
# [40] = molecular target: ADCK3 (Homo sapiens (Human), UniProt Q8NI60); assay: KINOMEscan; format: binding; conditions: 1 uM
smiles,measurement,setting,value
COc1ccc(N2C(=O)N(c3c(C)cccc3C)Cc3cnc(Nc4ccc(N5CCN(C)CC5)cc4)nc32)c(OC)c1 [HG-11-136-01],qAC50,[1],171 nM
same,Data Mode,[1]; curve direction of qAC50 data,decreasing
same,KINOMEscan RET (M918T),[2],0.05
same,KINOMEscan KIT (V559D),[3],0
same,KINOMEscan PIK3CA,[4],100
same,KINOMEscan RSK4 (Kin.Dom.1-N-terminal),[5],39
same,KINOMEscan KIT (D816H),[6],6
same,KINOMEscan EPHA4,[7],0
same,KINOMEscan JAK3 (JH1domain-catalytic),[8],0
same,KINOMEscan CHEK2,[9],46
same,KINOMEscan CDK8,[10],100
same,KINOMEscan ERK1,[11],100
same,KINOMEscan SgK110,[12],8.6
same,KINOMEscan BRAF (V600E),[13],13
same,KINOMEscan BLK,[14],0.1
same,KINOMEscan MAPKAPK5,[15],96
same,KINOMEscan TLK1,[16],76
same,KINOMEscan CSNK2A1,[17],1.9
same,KINOMEscan PDGFRA,[18],0.5
same,KINOMEscan RPS6KA5 (Kin.Dom.2-C-terminal),[19],80
same,KINOMEscan HIPK1,[20],3.8
same,KINOMEscan EPHB6,[21],0.7
same,KINOMEscan TNNI3K,[22],3.6
same,KINOMEscan TYK2 (JH1domain-catalytic),[23],5.6
same,KINOMEscan TEC,[24],2.6
same,KINOMEscan YSK4,[25],0.4
same,KINOMEscan PIK3CA (I800L),[26],94
same,KINOMEscan PIK4CB,[27],63
same,KINOMEscan FLT3 (R834Q),[28],48
same,KINOMEscan MEK3,[29],6.4
same,KINOMEscan NIM1,[30],42
same,KINOMEscan PRKCE,[31],61
same,KINOMEscan JNK1,[32],23
same,KINOMEscan CDK4-cyclinD3,[33],26
same,KINOMEscan PIK3CG,[34],77
same,KINOMEscan FGR,[35],0
same,KINOMEscan EPHA8,[36],0.9
same,KINOMEscan FLT3 (D835Y),[37],14
same,KINOMEscan BRAF,[38],26
same,KINOMEscan LIMK1,[39],0.05
same,KINOMEscan ADCK3,[40],38
